What was measured:
mesenteric artery = assay: Relaxation of mesenteric artery (KCl-contracted); details: Oryctolagus cuniculus; rabbit mesenteric artery contracted with 15 to 20 mM KCl; read-out: ED50 (concentration attaining 50% of complete relaxation)
Experimental: 1. Relaxation of Mesenteric Artery
A rabbit of Japanese local variety weighing about 3 kg was bled to death. Then, the abdomen of the rabbit was dissected to locate a mesenteric artery. […] Thus, shrinking and relaxation of the artery could be measured as a load on the transducer. To the organ bath, KCl was added so that the KCl concentration became 15 to 20 mM, causing the artery to shrink. Then, the compounds of the present invention were added to the organ bath to observe relaxation of the artery.
The effect of the compounds of the present invention on relaxation of mesenteric artery was examined according to the method as mentioned hereinbefore.

bronchial tubes = assay: Inhibition of histamine contraction of bronchial tubes (relaxation of bronchial tubes); details: Cavia porcellus; guinea pig bronchial tube, 10 μM histamine; Table 16; read-out: ED50 (50% decrease of histamine contraction of bronchial tubes)
Experimental: 3. Inhibition of Histamine Contraction of Bronchial Tubes (Relaxation of Bronchial Tubes)
That is, a bronchial tube sample taken from a guinea pig was suspended in the 20-ml bath filled with Krebs-Henseleit nutrient solution and maintained at a temperature of 37° C. To the bath was added histamine so that the histamine concentration became 10 μM, causing the bronchial tube sample to contract. After the contraction became stable, the compounds of the present invention were added cumulatively to the bath to observe relaxation of the bronchial tube sample.
The effect of the compounds of the present invention on relaxation of bronchial tubes was examined according to the method as mentioned hereinbefore.

EC50 (mesenteric artery) | EC50 (bronchial tubes) | Compound
21 µM | 23 µM | CCCCCCN(C)C1CCN(S(=O)(=O)c2cccc3cnccc23)CC1 [Compound (59), 1-(5-isoquinolinesulfonyl)-4-(N-hexyl-N-methylamino)piperidine]
13 µM | 13 µM | CCCCN(C(C)C(C)N)S(=O)(=O)c1cccc2cnccc12 (stereo not drawn) [Compound (16), N-(2-amino-1-methylpropyl)-N-butyl-5-isoquinolinesulfonamide]
23 µM | 17 µM | CCCCCCN(C(CCC)CCCN)S(=O)(=O)c1cccc2cnccc12 (stereo not drawn) [Compound (24), N-(4-amino-1-propylbutyl)-N-hexyl-5-isoquinolinesulfonamide]
16 µM | 13 µM | CCCCCCN(C(CN)CCCC)S(=O)(=O)c1cccc2cnccc12 (stereo not drawn) [Compound (19), N-(1-aminomethylpentyl)-N-hexyl-5-isoquinolinesulfonamide]
19 µM | 25 µM | CCCCCCNCCCCCCN(CCCCCC)S(=O)(=O)c1cccc2cnccc12 [Compound (35), N-(6-hexylaminohexyl)-N-hexyl-5-isoquinolinesulfonamide]
10 µM | 15 µM | CCCCN(CCNCCc1ccccc1)S(=O)(=O)c1cccc2cnccc12 [Compound (31), N-butyl-N-(2-phenylethylaminoethyl)-5-isoquinolinesulfonamide]
9 µM | 10 µM | CCCCCCNCCN(CCCCCC)S(=O)(=O)c1cccc2cnccc12 [Compound (29), N-(2-hexylaminoethyl)-N-hexyl-5-isoquinolinesulfonamide]
19 µM | 17 µM | CCCCCCN(C(C)CCCN)S(=O)(=O)c1cccc2cnccc12 (stereo not drawn) [Compound (21), N-(4-amino-1-methylbutyl)-N-hexyl-5-isoquinolinesulfonamide]
22 µM | 19 µM | CCN(CCN(C)C1CCCCC1)S(=O)(=O)c1cccc2cnccc12 [Compound (47), N-[2-(N-cyclohexyl-N-methylamino)ethyl]-N-ethyl-5-isoquinolinesulfonamide]
10 µM | 22 µM | CCCCCCCCC(N)CN(CCC)S(=O)(=O)c1cccc2cnccc12 (stereo not drawn) [Compound (14), N-(2-aminodecyl)-N-propyl-5-isoquinolinesulfonamide]
26 µM | 26 µM | CCN(CCCCCN1CCCCC1)S(=O)(=O)c1cccc2cnccc12 [Compound (50), N-ethyl-N-(5-piperidinopentyl)-5-isoquinolinesulfonamide]
15 µM | 25 µM | CCN(CC)CCN(C)S(=O)(=O)c1cccc2cnccc12 [Compound (42), N-(2-diethylaminoethyl)-N-methyl-5-isoquinolinesulfonamide]
5 µM | 11 µM | CCCCCCN(CCCCN)S(=O)(=O)c1cccc2cnccc12 [Compound (8), N-(4-aminobutyl)-N-hexyl-5-isoquinolinesulfonamide]
2 µM | 13 µM | CCCCCCN(CCCN)S(=O)(=O)c1cccc2cnccc12 [Compound (7), N-(3-aminopropyl)-N-hexyl-5-isoquinolinesulfonamide]
14 µM | 10 µM | CC(C)NC1CCCN(S(=O)(=O)c2cccc3cnccc23)C1 (stereo not drawn) [Compound (67), 1-(5-isoquinolinesulfonyl)-3-isopropylaminopiperidine]
5 µM | 19 µM | CCCCCCC(N)CN(CCCCCC)S(=O)(=O)c1cccc2cnccc12 (stereo not drawn) [Compound (13), N-(2-aminooctyl)-N-hexyl-5-isoquinolinesulfonamide]
5 µM | 8 µM | CCCNC1CCCN(S(=O)(=O)c2cccc3cnccc23)C1 (stereo not drawn) [Compound (66), 1-(5-isoquinolinesulfonyl)-3-propylaminopiperidine]

Further lines, the compound ahead of its results:

Compound | EC50 (mesenteric artery) | EC50 (bronchial tubes)
CN(C)C1CCCN(S(=O)(=O)c2cccc3c(Cl)nccc23)C1 (stereo not drawn) [Compound (99), 1-(1-chloro-5-isoquinolinesulfonyl)-3-dimethylaminopiperidine] | 21 µM | 19 µM
CCNC1CCCN(S(=O)(=O)c2cccc3cnccc23)C1 (stereo not drawn) [Compound (65), 1-(5-isoquinolinesulfonyl)-3-ethylaminopiperidine] | 6 µM | 5 µM
CC1CC(N)CN1S(=O)(=O)c1cccc2cnccc12 (stereo not drawn) [Compound (77), 1-(5-isoquinolinesulfonyl)-3-amino-5-methylpyrrolidine] | 16 µM | 32 µM
CCNC1CCCN(S(=O)(=O)c2cccc3c(Cl)nccc23)C1 (stereo not drawn) [Compound (97), 1-(1-chloro-5-isoquinolinesulfonyl)-3-ethylaminopiperidine] | 15 µM | 10 µM
O=S(=O)(c1cccc2c(O)nccc12)N1CCCC(NCCc2ccccc2)C1 (stereo not drawn) [Compound (89), 1-(1-hydroxy-5-isoquinolinesulfonyl)-3-phenethylaminopiperidine] | 12 µM | 10 µM
NC1CCN(S(=O)(=O)c2cccc3c(Cl)nccc23)C1 (stereo not drawn) [Compound (101), 1-(1-chloro-5-isoquinolinesulfonyl)-3-aminopyrrolidine] | 17 µM | 14 µM
CNC1CCCN(S(=O)(=O)c2cccc3cnccc23)C1 (stereo not drawn) [Compound (64), 1-(5-isoquinolinesulfonyl)-3-methylaminopiperidine] | 6 µM | 6 µM
CCCNC1CCN(S(=O)(=O)c2cccc3cnccc23)CC1 [Compound (54), 1-(5-isoquinolinesulfonyl)-4-propylaminopiperidine] | 13 µM | 14 µM
O=S(=O)(c1cccc2cnccc12)N(CCNCc1ccccc1)Cc1ccccc1 [Compound (30), N-(2-benzylaminoethyl)-N-benzyl-5-isoquinolinesulfonamide] | 12 µM | 12 µM
O=S(=O)(c1cccc2c(O)nccc12)N1CCC(Nc2ccccc2)CC1 [Compound (82), 1-(1-hydroxy-5-isoquinolinesulfonyl)-4-phenylaminopiperidine] | 21 µM | 21 µM
O=S(=O)(c1cccc2cnccc12)N1CCCC(NCc2ccccc2)C1 (stereo not drawn) [Compound (69), 1-(5-isoquinolinesulfonyl)-3-benzylaminopiperidine] | 8 µM | 14 µM
O=S(=O)(c1cccc2c(O)nccc12)N1CCCC(Nc2ccccc2)C1 (stereo not drawn) [Compound (87), 1-(1-hydroxy-5-isoquinolinesulfonyl)-3-phenylaminopiperidine] | 20 µM | 15 µM
CNC1CCN(S(=O)(=O)c2cccc3c(Cl)nccc23)C1 (stereo not drawn) [Compound (102), 1-(1-chloro-5-isoquinolinesulfonyl)-3-methylaminopyrrolidine] | 16 µM | 18 µM
O=S(=O)(c1cccc2c(O)nccc12)N1CCCC(NCc2ccccc2)C1 (stereo not drawn) [Compound (86), 1-(1-hydroxy-5-isoquinolinesulfonyl)-3-benzylaminopiperidine] | 17 µM | 11 µM
O=S(=O)(c1cccc2cnccc12)N1CCC(Nc2ccccc2)CC1 [Compound (58), 1-(5-isoquinolinesulfonyl)-4-phenylaminopiperidine] | 20 µM | 25 µM
CNC1CCN(S(=O)(=O)c2cccc3c(O)nccc23)CC1 [Compound (80), 1-(1-hydroxy-5-isoquinolinesulfonyl)-4-methylaminopiperidine] | 14 µM | 16 µM

Reference: patent US4798897A, “Isoquinoline derivatives” (Asahi Kasei Kogyo Kabushiki Kaisha, priority 1987, dated 1989)
